Results taken from the supplement of paper PMC13207355.
Structures can show the parent of a compound that is named as a salt.

Tests used:
Settings in all cases: exposure time: 72 h
E13 [1] = patient-derived glioblastoma stem cells of classical subtype; assay: surviving fraction (nuclei count normalised to DMSO); higher = more cells surviving (less toxic)
E21 [2] = patient-derived glioblastoma stem cells of mesenchymal subtype; assay: as above
E28 [3] = patient-derived glioblastoma stem cells of classical subtype; assay: as above
E31 [4] = patient-derived glioblastoma stem cells of proneural subtype; assay: as above
E34 [5] = patient-derived glioblastoma stem cells of proneural subtype; assay: as above
E57 [6] = patient-derived glioblastoma stem cells of mesenchymal subtype; assay: as above
FT3469 [7] = normal neural stem cell line; assay: as above
E13 [8] = assay: phenotypic distance (Euclidean, principal components) from DMSO controls (arbitrary units); higher = stronger morphological change
E21 [9] = assay: as above
E28 [10] = assay: as above
E31 [11] = assay: as above
E34 [12] = assay: as above
E57 [13] = assay: as above
FT3469 [14] = assay: as above
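Wherever phenotypic distance (Euclidean, principal components) from DMSO controls is given: cell Painting imaging in 384-well plates, CellProfiler features reduced to at least 20 principal components, Euclidean distance versus same-plate DMSO vehicle wells (0.1% v/v), median over six images per well.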
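Wherever surviving fraction (nuclei count normalised to DMSO) is given: nuclei counted by high-content imaging of Hoechst-stained cells in laminin-coated 384-well plates, relative to 0.1% DMSO vehicle wells, with staurosporine as cell-death control.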

COC(=O)Nc1nc2cc(C(=O)c3ccccc3)ccc2[nH]1 [Mebendazole]
Settings | phenotypic distance | surviving fraction
E13 [1], 4.1 nM | – | 0.79
E13 [1], 12.3 nM | – | 0.88
E13 [1], 37 nM | – | 0.816
E13 [1], 111.1 nM | – | 0.465
E13 [1], 333.3 nM | – | 0.22
E13 [1], 1000 nM | – | 0.203
E13 [1], 3000 nM | – | 0.221
E13 [8], 4.1 nM | 1.43 | –
E13 [8], 12.3 nM | 1.24 | –
E13 [8], 37 nM | 2.04 | –
E13 [8], 111.1 nM | 4.4 | –
E13 [8], 333.3 nM | 7.15 | –
E13 [8], 1000 nM | 6.93 | –
E13 [8], 3000 nM | 7.2 | –
E21 [2], 4.1 nM | – | 0.964
E21 [2], 12.3 nM | – | 0.942
E21 [2], 37 nM | – | 0.868
E21 [2], 111.1 nM | – | 0.707
E21 [2], 333.3 nM | – | 0.138
E21 [2], 1000 nM | – | 0.144
E21 [2], 3000 nM | – | 0.187
E21 [9], 4.1 nM | 1.49 | –
E21 [9], 12.3 nM | 1.54 | –
E21 [9], 37 nM | 1.52 | –
E21 [9], 111.1 nM | 2.75 | –
E21 [9], 333.3 nM | 7.72 | –
E21 [9], 1000 nM | 7.67 | –
E21 [9], 3000 nM | 6.82 | –
E28 [3], 4.1 nM | – | 1.01
E28 [3], 12.3 nM | – | 0.992
E28 [3], 37 nM | – | 0.943
E28 [3], 111.1 nM | – | 0.731
E28 [3], 333.3 nM | – | 0.444
E28 [3], 1000 nM | – | 0.288
E28 [3], 3000 nM | – | 0.426
E28 [10], 4.1 nM | 0.755 | –
E28 [10], 12.3 nM | 0.838 | –
E28 [10], 37 nM | 1.05 | –
E28 [10], 111.1 nM | 2.06 | –
E28 [10], 333.3 nM | 3.8 | –
E28 [10], 1000 nM | 4.27 | –
E28 [10], 3000 nM | 4.73 | –
E31 [4], 4.1 nM | – | 0.817
E31 [4], 12.3 nM | – | 0.859
E31 [4], 37 nM | – | 0.71
E31 [4], 111.1 nM | – | 0.417
E31 [4], 333.3 nM | – | 0.132
E31 [4], 1000 nM | – | 0.1
E31 [4], 3000 nM | – | 0.114
E31 [11], 4.1 nM | 1.27 | –
E31 [11], 12.3 nM | 0.909 | –
E31 [11], 37 nM | 1.1 | –
E31 [11], 111.1 nM | 2.77 | –
E31 [11], 333.3 nM | 5.6 | –
E31 [11], 1000 nM | 5.55 | –
E31 [11], 3000 nM | 4.51 | –
E34 [5], 4.1 nM | – | 0.922
E34 [5], 12.3 nM | – | 0.961
E34 [5], 37 nM | – | 0.917
E34 [5], 111.1 nM | – | 0.664
E34 [5], 333.3 nM | – | 0.432
E34 [5], 1000 nM | – | 0.403
E34 [5], 3000 nM | – | 0.384
E34 [12], 4.1 nM | 0.931 | –
E34 [12], 12.3 nM | 0.785 | –
E34 [12], 37 nM | 1.36 | –
E34 [12], 111.1 nM | 2.23 | –
E34 [12], 333.3 nM | 3.56 | –
E34 [12], 1000 nM | 3.98 | –
E34 [12], 3000 nM | 6.31 | –
E57 [6], 4.1 nM | – | 1
E57 [6], 12.3 nM | – | 1.06
E57 [6], 37 nM | – | 0.876
E57 [6], 111.1 nM | – | 0.784
E57 [6], 333.3 nM | – | 0.148
E57 [6], 1000 nM | – | 0.0727
E57 [6], 3000 nM | – | 0.092
E57 [13], 4.1 nM | 1.09 | –
E57 [13], 12.3 nM | 0.846 | –
E57 [13], 37 nM | 1.77 | –
E57 [13], 111.1 nM | 2.71 | –
E57 [13], 333.3 nM | 5.36 | –
E57 [13], 1000 nM | 5.62 | –
E57 [13], 3000 nM | 4.64 | –
FT3469 [7], 4.1 nM | – | 0.984
FT3469 [7], 12.3 nM | – | 1.02
FT3469 [7], 37 nM | – | 0.772
FT3469 [7], 111.1 nM | – | 0.663
FT3469 [7], 333.3 nM | – | 0.648
FT3469 [7], 1000 nM | – | 0.56
FT3469 [7], 3000 nM | – | 0.566
FT3469 [14], 4.1 nM | 0.995 | –
FT3469 [14], 12.3 nM | 0.806 | –
FT3469 [14], 37 nM | 0.927 | –
FT3469 [14], 111.1 nM | 2.1 | –
FT3469 [14], 333.3 nM | 3.21 | –
FT3469 [14], 1000 nM | 3.43 | –
FT3469 [14], 3000 nM | 3.34 | –

OC(c1cc(C(F)(F)F)nc2c(C(F)(F)F)cccc12)C1CCCCN1 (stereo unspecified) [Mefloquine hydrochloride]
Settings | phenotypic distance | surviving fraction
E13 [1], 4.1 nM | – | 0.953
E13 [1], 12.3 nM | – | 0.908
E13 [1], 37 nM | – | 1.09
E13 [1], 111.1 nM | – | 1.03
E13 [1], 333.3 nM | – | 0.98
E13 [1], 1000 nM | – | 0.992
E13 [1], 3000 nM | – | 0.842
E13 [8], 4.1 nM | 0.361 | –
E13 [8], 12.3 nM | 0.509 | –
E13 [8], 37 nM | 0.5 | –
E13 [8], 111.1 nM | 1.43 | –
E13 [8], 333.3 nM | 0.51 | –
E13 [8], 1000 nM | 0.651 | –
E13 [8], 3000 nM | 0.845 | –
E21 [2], 4.1 nM | – | 1.11
E21 [2], 12.3 nM | – | 0.951
E21 [2], 37 nM | – | 0.98
E21 [2], 111.1 nM | – | 0.983
E21 [2], 333.3 nM | – | 1.07
E21 [2], 1000 nM | – | 1.05
E21 [2], 3000 nM | – | 1.07
E21 [9], 4.1 nM | 0.776 | –
E21 [9], 12.3 nM | 0.568 | –
E21 [9], 37 nM | 0.797 | –
E21 [9], 111.1 nM | 0.488 | –
E21 [9], 333.3 nM | 0.618 | –
E21 [9], 1000 nM | 0.511 | –
E21 [9], 3000 nM | 1.05 | –
E28 [3], 4.1 nM | – | 1.12
E28 [3], 12.3 nM | – | 1
E28 [3], 37 nM | – | 1.22
E28 [3], 111.1 nM | – | 1.14
E28 [3], 333.3 nM | – | 1.23
E28 [3], 1000 nM | – | 1.21
E28 [3], 3000 nM | – | 1.12
E28 [10], 4.1 nM | 0.636 | –
E28 [10], 12.3 nM | 0.53 | –
E28 [10], 37 nM | 0.741 | –
E28 [10], 111.1 nM | 0.677 | –
E28 [10], 333.3 nM | 0.764 | –
E28 [10], 1000 nM | 1.07 | –
E28 [10], 3000 nM | 1.8 | –
E31 [4], 4.1 nM | – | 1.11
E31 [4], 12.3 nM | – | 0.942
E31 [4], 37 nM | – | 1.15
E31 [4], 111.1 nM | – | 0.922
E31 [4], 333.3 nM | – | 1.11
E31 [4], 1000 nM | – | 1.06
E31 [4], 3000 nM | – | 0.997
E31 [11], 4.1 nM | 0.433 | –
E31 [11], 12.3 nM | 0.421 | –
E31 [11], 37 nM | 0.563 | –
E31 [11], 111.1 nM | 0.539 | –
E31 [11], 333.3 nM | 0.506 | –
E31 [11], 1000 nM | 0.632 | –
E31 [11], 3000 nM | 0.65 | –
E34 [5], 4.1 nM | – | 1.1
E34 [5], 12.3 nM | – | 0.856
E34 [5], 37 nM | – | 1.06
E34 [5], 111.1 nM | – | 0.941
E34 [5], 333.3 nM | – | 1.14
E34 [5], 1000 nM | – | 0.908
E34 [5], 3000 nM | – | 1.02
E34 [12], 4.1 nM | 0.892 | –
E34 [12], 12.3 nM | 0.581 | –
E34 [12], 37 nM | 0.73 | –
E34 [12], 111.1 nM | 0.475 | –
E34 [12], 333.3 nM | 0.804 | –
E34 [12], 1000 nM | 0.787 | –
E34 [12], 3000 nM | 0.828 | –
E57 [6], 4.1 nM | – | 1.05
E57 [6], 12.3 nM | – | 1.05
E57 [6], 37 nM | – | 0.93
E57 [6], 111.1 nM | – | 0.987
E57 [6], 333.3 nM | – | 1.17
E57 [6], 1000 nM | – | 0.93
E57 [6], 3000 nM | – | 0.903
E57 [13], 4.1 nM | 0.488 | –
E57 [13], 12.3 nM | 0.813 | –
E57 [13], 37 nM | 0.474 | –
E57 [13], 111.1 nM | 0.652 | –
E57 [13], 333.3 nM | 1.37 | –
E57 [13], 1000 nM | 0.948 | –
E57 [13], 3000 nM | 0.991 | –
FT3469 [7], 4.1 nM | – | 1.13
FT3469 [7], 12.3 nM | – | 1.13
FT3469 [7], 37 nM | – | 0.975
FT3469 [7], 111.1 nM | – | 1.2
FT3469 [7], 333.3 nM | – | 1.07
FT3469 [7], 1000 nM | – | 1.02
FT3469 [7], 3000 nM | – | 0.875
FT3469 [14], 4.1 nM | 0.882 | –
FT3469 [14], 12.3 nM | 0.444 | –
FT3469 [14], 37 nM | 0.675 | –
FT3469 [14], 111.1 nM | 0.627 | –
FT3469 [14], 333.3 nM | 0.598 | –
FT3469 [14], 1000 nM | 0.423 | –
FT3469 [14], 3000 nM | 1.16 | –
